Source: patent publication US7033999B2, “Nitrosated and nitrosylated heme proteins” (Brigham and Women's Hospital, priority 1991, dated 2006)

Tests used:
gel-filtered platelets [1] = assay: Intracellular platelet cyclic GMP (radioimmunoassay); format: cell-based, human
Method: (§1) Venous blood, anticoagulated with 1-mM trisodium citrate, was obtained from volunteers who had not consumed acetylsalicylic acid for at least ten days. Platelet-rich plasma (PRP) was prepared by centrifugation at 150 g for ten minutes at 25° C. Platelet counts were determined with a Coulter counter (model ZM; Coulter Electronics, Hialeah, Fla.).
(§2) Platelets were gel-filtered on a 4× 10 cm column of Sepharose 2B in Tyrode's Hepes buffer as described previously (Hawiger et al., Nature 2831:195–198 (1980), herein incorporated by reference). Platelets were typically suspended at a concentration of 1.5×10^8/ml and were used within 30 minutes of preparation. Platelet aggregation was monitored using a standard nephelometric technique (Born, et al., J. Physiol. 168:178–195 (1963), herein incorporated by reference), in which 0.3-ml aliquots of gel-filtered platelets were incubated at 37° C. and stirred at 1000 rpm in a PAP-4 aggregometer (Biodata, Hatboro, Pa.). Gel-filtered platelets were preincubated with t-PA or S—NO-t-PA for up to 45 minutes and aggregations induced with 5 μM ADP or 0.025 U/ml thrombin.
The antiplatelet actions of S-nitrosothiols are mediated by cyclic GMP. Measurements of cGMP were performed by radioimmunoassay. Gel-filtered platelets were pre-incubated for 180 seconds with S—NO-t-PA (9 μM), and related controls. […]

gel-filtered platelets [2] = assay: Platelet aggregation (nephelometric aggregometry); format: cell-based, human; details: 5 μM ADP
Method: as §1, §2
Aggregations were quantified by measuring the maximal rate or extent of light transmittance and expressed as a normalized value relative to control aggregations.
The effect of S-nitroso-BSA on platelet aggregation was studied, using a gel-filtered platelet preparation, as previously described (Hawiger et al., Nature 2831:195 (1980)) and suspended at 150,000 platelets/ul in HEPES buffer, pH 7.35. S—NO-BSA was incubated with platelets for ten minutes at 37° C. in a PAP-4 aggregometer (BioData, Hatboro, Pa.), after which aggregations were induced with 5 μM ADP. Aggregations were quantified by measuring the extent of change of light transmittance and expressed as a normalized value relative to control aggregations.

S—NO-t-PA: derived from the nitrosylation of tissue-type plasminogen activator (t-PA)
increase in intracellular cyclic GMP above basal levels (gel-filtered platelets [1]; 9 μM, 180 seconds, basal in the presence of t-PA): 85%
elevation in platelet cGMP after preincubation with methylene blue (gel-filtered platelets [1]; methylene blue 10 μM for ten minutes): entirely prevented
effect on platelet aggregation, synthesized with authentic EDRF (gel-filtered platelets [2]; 333 nM, preincubated ten minutes): inhibition of platelet aggregation
inhibition in rate and extent of aggregation (gel-filtered platelets [2]; 1.4 μM, mean ±S.D., n=4): 50±16%
